These results are taken from publication PMC10786919, “Design-rules for stapled peptides with in vivo activity and their application to Mdm2/X antagonists” (Nature Communications, 2024).

A short description of series [1]: Experimental LogD (partition coefficient). The conditions noted are these: for logD: not stated, Partition Coeff LogD.
A short description of series [2]: Solubility assay (kinetic solubility, PBS pH 7). Format: physicochemical. The conditions noted are these: pH 7, PBS; for solubility kinetic: pH 7, aqueous buffer, kinetic from dmso stock, read-out: Solubility. The procedure: The standard reference solutions were prepared by diluting the 10 mM stock in 10:80:10 solution of acetonitrile:methanol:DMSO to 100 µM.
The solubility value is calculated by the following equation:
Solubility [µM] = (Peak area of sample/ Peak area of standard) (Standard concentration)

The subject of a further series is HCT116 cells. The series is described as follows: Lactate dehydrogenase (LDH) release assay. Format: cell-based. In a few lines:
(§1)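 Geometric means of at least three independent biological runs are given for LDH release measured in HCT116 cells stably expressing a p53-driven β-lactamase reporter. Plating density was 8000 cells/well; DMSO in wells was 0.5%.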

Series [3] is described as follows: Lactate dehydrogenase (LDH) release assay. Format: cell-based. In a few lines:
as §1

A further series in a line: in vitro. The source says:
Further, there have been several literature reports[18]–[20] that highlight that the combination of hydrophobic character and positive charge can result in mast cell degranulation (MCD), a potentially fatal condition[18]–[20]. […] The NanoClick assay[22] determines permeability of azide-labeled peptides by combining intracellular copper-free click chemistry with NanoBRET technology. Specifically, if an azido-peptide achieves cytosolic exposure, it will react with a cyclooctyne-decorated Halotag construct that is fused with nanoluciferase. This reaction blocks the click labelling of a subsequently added azido-labeled acceptor dye, thus decreasing the NanoBRET signal in a manner that is target-binding agnostic.
This assay was previously described in detail. The assay was performed in 384-well white assay plates (PerkinElmer CUSG03874) using assay-ready frozen cells that had been transiently transfected with the NanoLuc-HaloTag vector that were thawed at plated in complete media at a density of 6000 cells/ well and incubated at 37 °C 5% CO2 overnight. DIBAC-CA was diluted in assay buffer (OptiMem without phenol red + 1% FBS) and added to cells at a final concentration of 3 μM and incubated at 37 °C 5% CO2 for 1 h. Cells were subsequently centrifuged using a BlueWasher instrument (Blue Cat Bio) to remove the DIBAC-CA solution and washed two times with HBSS (Ca2 + , Mg2 + ). A volume of 30 μL of assay buffer was added back to cell plates. Peptides were serially diluted 4-fold in DMSO with a Hamilton Star apparatus and then delivered into assay plates with an acoustic liquid handler Labcyte ECHO (300 nl, 1% DMSO in-well concentration). After incubating cells with peptide for the desired time (4 or 18 h), the HaloTag ligand, NanoBret618-azide, was added to each well at a final concentration of 10 μM. […] Following addition of NanoBRET Nano-Glo Substrate, donor emission (450 nm) and acceptor emission (610 nm) were measured using an Envision instrument (PerkinElmer).

Setting [4] is: Nanoclick permeability assay EC50.

Converted amounts (≈) assume the structure as drawn. Like-named read-outs stand apart in the source and are kept apart here. Positions of bridges follow the written chain, without caps; N, C: chain ends. Non-standard residues stand in square brackets, D forms with d. Residues, ends and D or L forms follow the SMILES beside them. Lys(N3) = [N-]=[N+]=NCCCC[C@H](N)C(=O)O; R8 = C=CCCCCCC[C@@](C)(N)C(=O)O; Cba = N[C@@H](CC1CCC1)C(=O)O; S5 = C=CCCC[C@](C)(N)C(=O)O; Ahx = NCCCCCC(=O)O; βAla = NCCC(=O)O

Usually logD stands for lipophilicity at a set pH, counting ionised and neutral species. The term EC50 denotes the concentration needed to bring the measured effect to its halfway point. In turn, `CC(=O)N[C@@H](CCCNC(=N)N)C(=O)NCCC(=O)N[C@@H](CC(C)C)C(=O)N[C@H](C(=O)N[C@@H](Cc1ccccc1)C(=O)N[C@]1(C)CCCCCCC=CCCC[C@@](C)(C(=O)N[C@@H](CO)C(=O)N[C@@H](C)C(=O)N[C@@H](C)C(N)=O)NC(=O)[C@H](CC2CCC2)NC(=O)[C@H](CCC(N)=O)NC(=O)[C@H](C)NC(=O)[C@H](Cc2c[nH]c3ccccc23)NC(=O)[C@H](Cc2ccc(O)cc2)NC(=O)[C@H](CCC(=O)O)NC1=O)[C@@H](C)O` [MP-000] yielded a pH-dependent lipophilicity (logD) in series [1] of 2.66. For the same compound, in series [2], the solubility kinetic was 2 µM (≈ 3.94 µg/mL). In addition, the “LDH: Cytotoxicity assay: % Effect” value in the series on HCT116 cells is 6.079%. The same compound returned a concentration giving a half-maximal response (EC50) in series [3] (LDH: Cytotoxicity assay: EC50) greater than 50 µM.
As for `CC(=O)N[C@@H](CCCNC(=N)N)C(=O)N[C@@H](CCCNC(=N)N)C(=O)NCCCCCC(=O)N[C@@H](CCCCN=[N+]=[N-])C(=O)N[C@@H](CC(C)C)C(=O)N[C@H](C(=O)N[C@@H](Cc1ccccc1)C(=O)N[C@]1(C)CCCCCCC=CCCC[C@@](C)(C(=O)N[C@@H](CO)C(=O)N[C@@H](C)C(=O)N[C@@H](C)C(N)=O)NC(=O)[C@H](CC2CCC2)NC(=O)[C@H](CCC(N)=O)NC(=O)[C@H](C)NC(=O)[C@H](Cc2c[nH]c3ccccc23)NC(=O)[C@H](Cc2ccc(O)cc2)NC(=O)[C@H](CCC(=O)O)NC1=O)[C@@H](C)O` [MP-007], the logD in series [1] is 2.83. In series [2], the solubility kinetic was determined as 37 µM (≈ 86 µg/mL). Moreover, the “LDH: Cytotoxicity assay: % Effect” value with HCT116 cells worked out at 23.39%. Also, the EC50 in series [3] (LDH: Cytotoxicity assay: EC50) was greater than 50 µM.
For `CC(C)C[C@@H]1NC(=O)[C@H](C)NC(=O)[C@H](Cc2c[nH]c3ccccc23)NC(=O)[C@H](Cc2ccc(O)cc2)NC(=O)[C@H](CCC(=O)O)NC(=O)[C@](C)(NC(=O)[C@H](Cc2ccccc2)NC(=O)[C@H](CO)NC(=O)[C@@H](NC(=O)CNC(=O)[C@H](CO)NC(=O)CNC(=O)[C@@H](N)CCCCN=[N+]=[N-])[C@@H](C)O)CCCCCCC=CCCC[C@@](C)(C(=O)N[C@@H](CCC(=O)O)C(N)=O)NC(=O)[C@H](CC(C)C)NC1=O` [MP-011] the same measures were 2.05, 23 µM (≈ 43.8 µg/mL), 18.05% and greater than 50 µM.
`CC(=O)N[C@@H](CCCCN=[N+]=[N-])C(=O)N[C@@H](CCCNC(=N)N)C(=O)N[C@@H](CCCNC(=N)N)C(=O)NCCCCCC(=O)N[C@H](C(=O)N[C@@H](CO)C(=O)N[C@@H](Cc1ccccc1)C(=O)N[C@]1(C)CCCCCCC=CCCC[C@@](C)(C(=O)N[C@@H](CCC(=O)O)C(=O)N[C@@H](CC(N)=O)C(=O)N[C@@H](Cc2ccccc2)C(N)=O)NC(=O)[C@H](CC(C)C)NC(=O)[C@H](CC(C)C)NC(=O)[C@H](C)NC(=O)[C@H](Cc2c[nH]c3ccccc23)NC(=O)[C@H](Cc2ccc(O)cc2)NC(=O)[C@H](CCC(=O)O)NC1=O)[C@@H](C)O` [MP-083] (Ac-[Lys(N3)]RR[Ahx]TSF[R8]EYWALL[S5]ENF-NH2; staple 8-15) had a log distribution coefficient (logD) in series [1] of 2.54. In addition, the solubility kinetic in series [2] is 4 µM (≈ 9.73 µg/mL). Further, in the series with HCT116 cells, the “LDH: Cytotoxicity assay % Effect” value is listed as 0.165%. In series [3] (LDH: Cytotoxicity assay EC50), this compound came in with a half-maximal effective concentration (EC50) greater than 50 µM.
For the compound `CC(=O)N[C@@H](CCCCN=[N+]=[N-])C(=O)NCCC(=O)N[C@@H](CC(C)C)C(=O)N[C@H](C(=O)N[C@@H](Cc1ccccc1)C(=O)N[C@]1(C)CCCCCCC=CCCC[C@@](C)(C(=O)N[C@@H](CO)C(=O)N[C@@H](C)C(=O)N[C@@H](CCCNC(=N)N)C(N)=O)NC(=O)[C@H](CC2CCC2)NC(=O)[C@H](CCC(N)=O)NC(=O)[C@H](C)NC(=O)[C@H](Cc2c[nH]c3ccccc23)NC(=O)[C@H](Cc2ccc(O)cc2)NC(=O)[C@H](CCC(=O)O)NC1=O)[C@@H](C)O` [MP-480] (Ac-[Lys(N3)][βAla]LTF[R8]EYWAQ[Cba][S5]SAR-NH2; staple 6-13), the cell entry EC50 in “in vitro” (setting [4]) amounted to 0.1 µM. In series [3] (LDH: Cytotoxicity assay: EC50), this compound showed an EC50 greater than 50 µM.
Regarding `CC[C@H](C)[C@H](NC(=O)[C@H](CC(C)C)NC(=O)[C@H](Cc1ccccc1)NC(=O)[C@@H](N)Cc1ccccc1)C(=O)N1CCC[C@H]1C(=O)N[C@@H](CCCCN)C(=O)NCC(=O)N[C@@H](CCCNC(=N)N)C(=O)N[C@@H](CCCNC(=N)N)C(=O)N[C@@H](CCCNC(=N)N)C(=O)N[C@@H](CCCNC(=N)N)C(=O)N[C@@H](CCCNC(=N)N)C(=O)N[C@@H](CCCNC(=N)N)C(=O)N[C@@H](CCCNC(=N)N)C(=O)N[C@@H](CCCNC(=N)N)C(=O)N[C@@H](CCCNC(=N)N)C(=O)N[C@@H](CCCCN=[N+]=[N-])C(=O)NCCC(=O)N[C@@H](CC(C)C)C(=O)N[C@H](C(=O)N[C@@H](Cc1ccccc1)C(=O)N[C@]1(C)CCCCCCC=CCCC[C@@](C)(C(=O)N[C@@H](CO)C(=O)N[C@@H](C)C(=O)N[C@@H](C)C(N)=O)NC(=O)[C@H](CC2CCC2)NC(=O)[C@H](CCC(N)=O)NC(=O)[C@H](C)NC(=O)[C@H](Cc2c[nH]c3ccccc23)NC(=O)[C@H](Cc2ccc(O)cc2)NC(=O)[C@H](CCC(=O)O)NC1=O)[C@@H](C)O` [MP-656] (H-FFLIPKGRRRRRRRRR[Lys(N3)][βAla]LTF[R8]EYWAQ[Cba][S5]SAA-NH2; staple 22-29), the “Partition Coeff LogD” value in series [1] is reported as “Poorly Behaved”. Further, in series [2], the Solubility result is on record as “Poorly Behaved”. Besides, the cell entry EC50 in the series “in vitro” (setting [4]) stood at 0.544 µM.
On to `CC(=O)N[C@@H](CCCCN=[N+]=[N-])C(=O)NCCC(=O)N[C@@H](CC(C)C)C(=O)N[C@H](C(=O)N[C@@H](Cc1ccccc1)C(=O)N[C@]1(C)CCCCCCC=CCCC[C@@](C)(C(=O)N[C@@H](C)C(=O)N[C@@H](C)C(=O)N[C@@H](C)C(=O)O)NC(=O)[C@H](CC2CCC2)NC(=O)[C@H](CCC(N)=O)NC(=O)[C@H](C)NC(=O)[C@H](Cc2c[nH]c3ccccc23)NC(=O)[C@H](Cc2ccc(O)cc2)NC(=O)[C@H](CCC(=O)O)NC1=O)[C@@H](C)O` [MP-684], for which the cell entry EC50 in the series “in vitro” was 0.496 µM. In addition, the EC50 in series [3] (0% FBS 4Hr, read-out: LDH: Cytotoxicity assay: EC50) was greater than 50.7 µM; in series [3] (10% FBS 16Hr, read-out: LDH: Cytotoxicity assay: EC50), greater than 50.7 µM.
With `CC(=O)N[C@@H](CCCCN=[N+]=[N-])C(=O)NCCC(=O)N[C@@H](CC(C)C)C(=O)N[C@H](C(=O)N[C@@H](Cc1ccccc1)C(=O)N[C@]1(C)CCCCCCC=CCCC[C@@](C)(C(=O)N[C@@H](C)C(=O)N[C@@H](C)C(=O)N[C@@H](CCC(=O)O)C(=O)N[C@@H](C)C(=O)N[C@@H](C)C(=O)N[C@H](C)C(N)=O)NC(=O)[C@H](CC2CCC2)NC(=O)[C@H](CCC(N)=O)NC(=O)[C@H](C)NC(=O)[C@H](Cc2c[nH]c3ccccc23)NC(=O)[C@H](Cc2ccc(O)cc2)NC(=O)[C@H](CCC(=O)O)NC1=O)[C@@H](C)O` [MP-833] (Ac-[Lys(N3)][βAla]LTF[R8]EYWAQ[Cba][S5]AAEAA[dA]-NH2; staple 6-13), the solubility kinetic in series [2] amounted to 154 µM (≈ 343 µg/mL). The cell entry EC50 in “in vitro” is 1.02 µM. In addition, the “LDH: Cytotoxicity assay % Effect” value in the series on HCT116 cells (0% FBS 4Hr) came to 3.813%; in the series with HCT116 cells (10% FBS 16Hr) it was 10.68%. Moreover, the EC50 in series [3] (0% FBS 4Hr, read-out: LDH: Cytotoxicity assay EC50) was greater than 50.7 µM; in series [3] (10% FBS 16Hr, read-out: LDH: Cytotoxicity assay EC50) it was greater than 50.7 µM.
Take `CC(=O)N[C@@H](CCCNC(=N)N)C(=O)NCCC(=O)N[C@@H](CCCCN=[N+]=[N-])C(=O)N[C@@H](CC(C)C)C(=O)N[C@H](C(=O)N[C@@H](Cc1ccccc1)C(=O)N[C@]1(C)CCCCCCC=CCCC[C@@](C)(C(=O)N[C@@H](CO)C(=O)N[C@@H](C)C(=O)N[C@@H](C)C(N)=O)NC(=O)[C@H](CC2CCC2)NC(=O)[C@H](CCC(N)=O)NC(=O)[C@H](C)NC(=O)[C@H](Cc2c[nH]c3ccccc23)NC(=O)[C@H](Cc2ccc(O)cc2)NC(=O)[C@H](CCC(=O)O)NC1=O)[C@@H](C)O` [MP-4004]: the “Partition Coeff LogD” value in series [1] is “Poorly Behaved”. The Solubility result in series [2] was “Poorly Behaved”. For the same compound, the “LDH: Cytotoxicity assay: % Effect” value with HCT116 cells is given as 7.573%. Moreover, in series [3] (LDH: Cytotoxicity assay: EC50), the EC50 was greater than 50 µM.
